Like-named read-outs stand apart in the source and are kept apart here.

Test [1] concerns the target NlugOBP2. In words: Competitive fluorescence binding assay (1-NPN probe) with recombinant NlugOBP2. Conditions: protein and 1-NPN at 2 µM. Also on record: species or system Nilaparvata lugens. As to the method:
(§1) The excitation wavelength was 337 nm and the emission spectrum was recorded between 370 and 460 nm by a fluorescence spectrometer (Hitachi F-7000 Fluorescence Spectrophotometer, Japan) with a 1 cm light path quartz cuvette and 10 nm slits for both excitation and emission.

The next test concerns the target NlugOBP3 (Nilaparvata lugens, UniProt B6E9U3). Kind of test: Competitive fluorescence binding assay (1-NPN probe) with recombinant NlugOBP3. As to the method:
as §1

The target in another test is NlugOBP1 (Nilaparvata lugens, UniProt B6E9U1). Kind of test: Competitive fluorescence binding assay (1-NPN probe) with recombinant NlugOBP1. As for the experimental part: as §1
The target of test [2] is NlugOBP2 (Nilaparvata lugens, UniProt B6E9U2). Kind of test: Competitive fluorescence binding assay (1-NPN probe) with recombinant NlugOBP2. As to the method: as §1
[3] abbreviates: calculated from IC50, protein and 1-NPN at 2 µM, pH 7.4, read-out: OBP2 Ki.
Where [4] appears, read: displacement of 1-NPN, protein and 1-NPN at 2 µM, 50 mM Tris-HCl pH 7.4, read-out: OBP2 IC50.
Setting [5] is: calculated from IC50, protein and 1-NPN at 2 µM, pH 7.4, read-out: OBP3 Ki.
Where [6] appears, read: displacement of 1-NPN, protein and 1-NPN at 2 µM, 50 mM Tris-HCl pH 7.4, read-out: OBP3 IC50.
The mark [7] stands for this setting: calculated from IC50, protein and 1-NPN at 2 µM, pH 7.4, read-out: OBP1 Ki.
[8] abbreviates: displacement of 1-NPN, protein and 1-NPN at 2 µM, 50 mM Tris-HCl pH 7.4, read-out: OBP1 IC50.

Chain of NlugOBP3 (B6E9U3 entry or part of it): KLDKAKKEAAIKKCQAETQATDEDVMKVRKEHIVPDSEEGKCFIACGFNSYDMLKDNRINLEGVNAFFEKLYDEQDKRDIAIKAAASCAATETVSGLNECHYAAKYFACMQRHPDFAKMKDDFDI
Chain of NlugOBP2 (Nilaparvata lugens, UniProt B6E9U2) (B6E9U2 entry or part of it): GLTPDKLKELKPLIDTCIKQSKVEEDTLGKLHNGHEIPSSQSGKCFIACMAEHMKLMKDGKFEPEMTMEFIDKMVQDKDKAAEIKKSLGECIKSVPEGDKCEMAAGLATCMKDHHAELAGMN
Chain of NlugOBP1 (B6E9U1 entry or part of it): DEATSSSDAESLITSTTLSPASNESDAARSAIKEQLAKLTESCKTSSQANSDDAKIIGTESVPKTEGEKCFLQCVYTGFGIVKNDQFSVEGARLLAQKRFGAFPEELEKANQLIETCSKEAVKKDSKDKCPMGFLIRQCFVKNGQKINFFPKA

`C[C@@H]1CC[C@H]2C(C)(C)[C@H]3C[C@@]12CC[C@@]3(C)O` [Ligand 9, Cedrol]: the inhibitory constant (Ki) is 30.1 µM at NlugOBP2 [1] (calculated from IC50, pH 7.4, read-out: OBP2 Ki); 14.1 µM at NlugOBP3; 25.6 µM at NlugOBP1. The IC50 at NlugOBP2 [1] (displacement of 1-NPN, 50 mM Tris-HCl pH 7.4, read-out: OBP2 IC50) came to 35 µM; at NlugOBP3, 19.7 µM; at NlugOBP1, 30 µM.
In the case of `COC(=O)c1ccccc1O` [Ligand 25, Methyl salicylate], the IC50 on NlugOBP2 [2] is 37.4 µM; at NlugOBP3, 44.8 µM; on NlugOBP1 it was greater than 50 µM. Further, the inhibition constant Ki on NlugOBP2 [2] is 32.2 µM; on NlugOBP3, 32 µM; on NlugOBP1 it was greater than 50 µM.
In the case of `CC/C=C/CCO` [Ligand 4, (E)-3-Hexen-1-ol], the values for the IC50 on NlugOBP2 [2], at NlugOBP3 and at NlugOBP1 were greater than 50 µM, 29.6 µM and greater than 50 µM, respectively. Besides, the Ki was greater than 50 µM at NlugOBP2 [2], 21.1 µM on NlugOBP3 and greater than 50 µM on NlugOBP1.
Turning to `O=Cc1ccccc1` [Ligand 14, Benzaldehyde], the IC50 at NlugOBP2 [2] is 38.7 µM; at NlugOBP3, 41 µM; on NlugOBP1, greater than 50 µM. Also, the Ki at NlugOBP2 [2] was 33.3 µM; at NlugOBP3 it was 29.3 µM; at NlugOBP1, greater than 50 µM.
Consider `CC(C)=CCC/C(C)=C/CO` [Ligand 8, Geraniol], for which the IC50 was greater than 50 µM on NlugOBP2 [2], 32.6 µM on NlugOBP3 and greater than 50 µM at NlugOBP1. For the same compound, the Ki on NlugOBP2 [2] is greater than 50 µM; on NlugOBP3 it was 23.3 µM; at NlugOBP1, greater than 50 µM.
In the case of `CC(=O)/C=C/C1=C(C)CCCC1(C)C` [Ligand 37, β- Ionone], at NlugOBP2 [2], the IC50 was 25.8 µM, the Ki turned out to be 22.2 µM and the “binding ability with NlugOBP2 (in words)” value is reported as “relatively high binding abilities”. Further, at NlugOBP3, the IC50 was 8.5 µM, the Ki came to 6.1 µM and the “binding ability with NlugOBP3 (in words)” value is given as “relatively high binding abilities”. Moreover, at NlugOBP1, the IC50 was 25.2 µM, the Ki is 21.5 µM and the “binding ability with NlugOBP1 (in words)” value is “relatively high binding abilities”.
Take `CC(C)(C)c1cccc(C(C)(C)C)c1O` [Ligand 41, 2,6-Di-tert-butylphenol]: the inhibition constant Ki is greater than 50 µM on NlugOBP2 [2] (setting [3]), 9.5 µM on NlugOBP3 (setting [5]) and 19 µM on NlugOBP1 (setting [7]). Besides, the IC50 at NlugOBP2 [2] (setting [4]) is greater than 50 µM; at NlugOBP3 (setting [6]) it was 13.3 µM; at NlugOBP1 (setting [8]), 22.3 µM.
For `c1ccc(Nc2cccc3ccccc23)cc1` [Ligand 1-NPN, N-phenyl-1-naphthyl-amine, reference compound], the Kd at NlugOBP2 [2] turned out to be 10.3 ± 1.3 µM; at NlugOBP3, 3.2 ± 0.3 µM; on NlugOBP1, 9.7 ± 0.9 µM.
As for `CCCCCCOC(C)=O` [Ligand 21, Hexyl acetate], the results for the Ki on NlugOBP2 [2] (setting [3]), at NlugOBP3 (setting [5]) and on NlugOBP1 (setting [7]) were greater than 50 µM, 22 µM and 37.9 µM, respectively. In addition, the figures for the IC50 on NlugOBP2 [2] (setting [4]), on NlugOBP3 (setting [6]) and on NlugOBP1 (setting [8]) were greater than 50 µM, 30.8 µM and 44.4 µM, respectively.
Turning to `CC/C=C\CCOC(C)=O` [Ligand 22, (Z)-3-Hexenyl acetate], the inhibition constant (Ki) is 32.5 µM at NlugOBP2 [2] (setting [3]), 27.1 µM at NlugOBP3 (setting [5]) and greater than 50 µM at NlugOBP1 (setting [7]). The results for the IC50 at NlugOBP2 [2] (setting [4]), at NlugOBP3 (setting [6]) and on NlugOBP1 (setting [8]) were 37.8 µM, 38 µM and greater than 50 µM, respectively.
In the case of `CCCCCCCCCCCCCCCCC` [Ligand 30, Heptadecane], the Ki on NlugOBP2 [2] (setting [3]), on NlugOBP3 (setting [5]) and at NlugOBP1 (setting [7]) was greater than 50 µM throughout. Also, the half-inhibitory concentration (IC50) on NlugOBP2 [2] (setting [4]), at NlugOBP3 (setting [6]) and at NlugOBP1 (setting [8]) was greater than 50 µM each time.
Consider `CCOC(=O)c1ccccc1` [Ligand 23, Ethyl benzoate], for which the IC50 on NlugOBP2 [2] is greater than 50 µM; on NlugOBP3, 39 µM; on NlugOBP1 it was greater than 50 µM. Further, the results for the Ki on NlugOBP2 [2], at NlugOBP3 and at NlugOBP1 were greater than 50 µM, 27.9 µM and greater than 50 µM, respectively.
For the compound `COC(=O)c1ccccc1` [Ligand 24, Methyl benzoate], the IC50 on NlugOBP2 [2], at NlugOBP3 and at NlugOBP1 was greater than 50 µM in each case. Besides, the Ki at NlugOBP2 [2], on NlugOBP3 and at NlugOBP1 was greater than 50 µM throughout.
For the compound `CCCCCCCCCCCC(=O)O` [Ligand 26, Dodecanoic acid], the IC50 on NlugOBP2 [2] is greater than 50 µM; at NlugOBP3 it was 13.9 µM; on NlugOBP1, 12.1 µM. Further, the inhibition constant Ki is greater than 50 µM on NlugOBP2 [2], 9.9 µM at NlugOBP3 and 10.3 µM at NlugOBP1.
With `OCCc1ccccc1` [Ligand 7, 2-phenylethanol], the figures for the Ki at NlugOBP2 [2] (setting [3]), on NlugOBP3 (setting [5]) and on NlugOBP1 (setting [7]) were greater than 50 µM, 26.1 µM and 34 µM, respectively. Also, the values for the IC50 at NlugOBP2 [2] (setting [4]), at NlugOBP3 (setting [6]) and at NlugOBP1 (setting [8]) were greater than 50 µM, 36.6 µM and 39.9 µM, respectively.
On to `CCC/C=C/COC(C)=O` [Ligand 20, (E)-2-Hexenyl acetate], for which the Ki at NlugOBP2 [2] (setting [3]) is 25.2 µM; on NlugOBP3 (setting [5]) it was 22.4 µM; at NlugOBP1 (setting [7]), greater than 50 µM. For the same compound, the IC50 was 29.3 µM on NlugOBP2 [2] (setting [4]), 31.3 µM at NlugOBP3 (setting [6]) and greater than 50 µM on NlugOBP1 (setting [8]).
For `CC(C)c1ccccc1` [Ligand 38, Cumene], the IC50 at NlugOBP2 [2] is 39.2 µM; at NlugOBP3, 37.2 µM; at NlugOBP1 it was greater than 50 µM. For the same compound, the Ki at NlugOBP2 [2] is 33.7 µM; on NlugOBP3 it was 26.6 µM; at NlugOBP1 it was greater than 50 µM.
Consider `CCCCCCCCCCCCCCCCCC` [Ligand 31, Octadecane], for which the Ki on NlugOBP2 [2] (setting [3]), at NlugOBP3 (setting [5]) and at NlugOBP1 (setting [7]) was greater than 50 µM each time. Besides, the IC50 on NlugOBP2 [2] (setting [4]), on NlugOBP3 (setting [6]) and at NlugOBP1 (setting [8]) was greater than 50 µM throughout.
Regarding `COC(C)(C)CCC[C@H](C)C/C=C/C(C)=C/C(=O)OC(C)C` (racemic) [Ligand 39, Methoprene], at NlugOBP2 [2], the concentration for half-maximal inhibition (IC50) came to 21.1 µM, the Ki was 18.1 µM and the “binding ability with NlugOBP2 (in words)” value is “high binding ability”. For the same compound, at NlugOBP3, the IC50 was 14.7 µM, the inhibition constant Ki worked out at 10.5 µM and the “binding ability with NlugOBP3 (in words)” value was “high binding ability”. At NlugOBP1, the IC50 came out at 19.4 µM, the inhibitory constant (Ki) was found to be 16.6 µM and the “binding ability with NlugOBP1 (in words)” value is listed as “high binding ability”.
For `CCCCCCCCCCCCCC` [Ligand 32, Tetradecane], the Ki at NlugOBP2 [2] (setting [3]), on NlugOBP3 (setting [5]) and at NlugOBP1 (setting [7]) was greater than 50 µM each time. For the same compound, the IC50 at NlugOBP2 [2] (setting [4]), at NlugOBP3 (setting [6]) and at NlugOBP1 (setting [8]) was greater than 50 µM each time.

The values are drawn from article PMC3235172, “Distinct Expression Profiles and Different Functions of Odorant Binding Proteins in Nilaparvata lugens Stål” (PLoS ONE, 2011).
